# Source: US6482814B1, “Biocidal composition and its use” (Avecia Limited, priority 1998, dated 2002)
# How the values were obtained:
# [1] = system: mixed inoculum of Aureobasidium pullulans, Fusarium enicillium funicularum, Scopulariopsis brevicaulis and Streptoverticillium waksmanii; assay: Soil burial of plasticised PVC strips, weight loss; details: PVC strip, 3000 ppm
# Description: Polvinylchioride sheets were prepared by callendaring the following mixture at 160° C.
# 100 parts Polyvinylchloride (Evipol SH65/20 ex EVC)
# 25 parts Dioctylphthalate (ex BP Chemicals)
# 25 parts Dioctyladipate (ex BP Chemicals)
# 2 parts Mixed Ca/Zn salt Lankromark LN138 as stabiliser (ex Lankro Chem)
# 3 parts Lankroflex ED6 as stabiliser/plasticiser (ex Lankro Chem)
# 5 parts Calcium stearate (ex Aldrich)
# 0.2 parts Stearic acid (ex Aldrich)
# Sheets were fabricated with and without a 1:1 mixture of N-n-butyl-1,2-benzisothiazolin 3-one (BBIT) and the 2:1 zinc complex of 1-hydroxypyridine-2-thione (ZO). […]
# Strips of the PVC (8 parts, 12.5×5 cm) were weighed to 4 decimal places, folded and buried in potting compost (John Innes No 2) in a plastic humidity chamber. The compost was sprayed with a mixed inoculum of Aureobasidium pullulans, Fusarium enicillium funicularum, Scopulariopsis brevicaulis and Streptoverticillium waksmanii and incubated at 25° C. The PVC strips were examined at 4 weeks intervals when they were cleaned, dried and weighed. The weight loss is recorded in Table 5 below.
# Alternaria alternata [2] = assay: Determination of FIC (10x10 matrix, isobologram); assay type: cell-based; details: component of the combination BBIT + ZO
# Excerpt: (§1) The composition of the present invention has antimicrobial properties and has been found particularly effective against deteriogens for plastics materials, especially in soil burial applications. […] The FIC is the ratio of the amount of each component in the composition relative to its Minimum Inhibitory Concentration (MIC) when used alone. […] When the sum of the FIC values is below one, the mixture is synergistic and when the sum of the FIC values is greater than one, the mixture is antagonistic. The FIC values are preferably determined by constructing an isobologram wherein each component in a matrix array is varied stepwise from a concentration in excess of the MIC down to zero ppm.
# A matrix was constructed in a 10×10 array in microtitre wells wherein the concentration of each chemical was varied stepwise by serial dilution from a concentration of twice the MIC down to zero. As each microtitre plate contains only 96 wells the combination of the two compounds making up the extreme concentrations (highest and lowest) were omitted. […]
# The presence or absence of growth was determined visually after incubation. […] From the matrix an isobologram was created and the FIC for each chemical of the composition calculated. […]
# (§2) The FIC values for N-n-butyl-1,2-benzisothiazolin-3-one and the 2:1 zinc complex of 1-hydroxypyridine-2-thione were determined in similar manner to that described in Example 1.
# Pseudomonas aeruginosa [3] = assay: Determination of FIC (10x10 matrix, isobologram); assay type: cell-based; details: for Optimal FIC Concentration: component of the combination BBIT + ZO; for concentration in the optimal composition: component of the combination BBIT + ZHMT
# Excerpt: as §1
# (§3) A matrix was constructed in a 10×10 array in microtitre wells wherein the concentration of each chemical was varied stepwise by serial dilution from a concentration of twice the MIC down to zero. As each microtitre plate contains only 96 wells the combination of the two compounds making up the extreme concentrations (highest and lowest) were omitted. Each mixture (100 μl) was added to the plate so that the total volume was maintained at 200 μl. By transferring 100 μl from each well to the adjacent well containing 100 μl nutrient the concentration of the chemical was reduced from twice the MIC to zero in a stepwise manner.
# (§4) The presence or absence of growth was determined visually after incubation. The plates containing bacteria were incubated for 16-24 hours at 37° C. and the plates containing fungi were incubated for 40-72 hours at 25° C. From the matrix an isobologram was created and the FIC for each chemical of the composition calculated. The FIC is the ratio of the concentration of chemical which inhibits growth when applied as a combination of chemicals relative to the MIC for that chemical when applied alone.
# (§5) The FIC values for the combination of N-n-butyl-1,2-benzisothiazolin-3-one (BBIT) and the 2:1 zinc complex of 3-hydroxy-4-methylthiazol-2(3H)-thione against a bacterium and a fungus are recorded in Tables 2 and 3, respectively.
# as §2
# Aspergillus niger [4] = assay: Determination of FIC (10x10 matrix, isobologram); assay type: cell-based; details: for Optimal FIC Concentration: component of the combination BBIT + ZO; for concentration in the optimal composition: component of the combination BBIT + ZHMT
# Excerpt: as §1, §3, §4, §5, §2
# Aspergillus niger [5] = assay: Determination of MIC (microtitre doubling dilution), fungi; assay type: cell-based; details: chemical alone; visual growth after 48 hours at 25° C.
# Description: (§6) Bacteria were grown to stationary phase (18 hours) in nutrient broth to give approximately 10^9 colony forming units per ml (CFU/ml). A 0.1% (v/v) inoculum was used to seed fresh medium and 100 μl was then added to each well of a microtitre plate, except for the first well which contained 200 μl. By using a doubling dilution technique, the concentration of the chemical under investigation was varied in each well along the ordinate axis. The presence or absence of bacterial growth was determined by visual inspection after 24 hours incubation at 37° C.
# (§7) The presence or absence of fungal growth was determined by visual inspection after incubation for 48 hours at 25° C.
# Aureobasidium pullulans = assay: as above; assay type: cell-based; details: chemical alone; visual growth after 48 hours at 25° C.
# Description: as §6, §7
# Alternaria alternata [6] = assay: as above; assay type: cell-based; details: chemical alone; visual growth after 48 hours at 25° C.
# Description: as §6, §7
# Pseudomonas aeruginosa [7] = assay: Determination of MIC (microtitre doubling dilution), bacteria; assay type: cell-based; details: chemical alone; visual growth after 24 hours at 37° C.
# Description: as §6
MIC (Aspergillus niger [5]) [ppm],MIC (Pseudomonas aeruginosa [7]) [ppm],SMILES,Weight Loss ([1]; 0 weeks) [%],Weight Loss ([1]; 4 weeks) [%],Weight Loss ([1]; 8 weeks) [%],Weight Loss ([1]; 12 weeks) [%],Weight Loss ([1]; 16 weeks) [%],Optimal FIC Concentration (Alternaria alternata [2]) [ppm],Optimal FIC Concentration (Pseudomonas aeruginosa [3]) [ppm],Optimal FIC Concentration (Aspergillus niger [4]) [ppm],MIC (Aureobasidium pullulans) [ppm],MIC (Alternaria alternata [6]) [ppm],concentration in the optimal composition (Pseudomonas aeruginosa [3]) [ppm],concentration in the optimal composition (Aspergillus niger [4]) [ppm]
11,33.5,"[O-]n1ccccc1=S.[O-]n1ccccc1=S.[Zn+2] [ZO, 2:1 zinc complex of 1-hydroxypyridine-2-thione]",0,0.3,0.8,1.5,2.3,22,16.4,8.3,1.5,55,–,–
16,16,"Cc1csc(=S)n1[O-].Cc1csc(=S)n1[O-].[Zn+2] [ZHMT, 2:1 zinc complex of 3-hydroxy-4-methylthiazol-2(3H)-thione]",–,–,–,–,–,–,–,–,–,–,10.6,5.9

SMILES,MIC (Aspergillus niger [5]) [ppm],MIC (Pseudomonas aeruginosa [7]) [ppm],Weight Loss ([1]; 0 weeks) [%],Weight Loss ([1]; 4 weeks) [%],Weight Loss ([1]; 8 weeks) [%],Weight Loss ([1]; 12 weeks) [%],Weight Loss ([1]; 16 weeks) [%],Optimal FIC Concentration (Alternaria alternata [2]) [ppm],Optimal FIC Concentration (Pseudomonas aeruginosa [3]) [ppm],Optimal FIC Concentration (Aspergillus niger [4]) [ppm],MIC (Aureobasidium pullulans) [ppm],MIC (Alternaria alternata [6]) [ppm],concentration in the optimal composition (Pseudomonas aeruginosa [3]) [ppm],concentration in the optimal composition (Aspergillus niger [4]) [ppm]
"CCCCn1sc2ccccc2c1=O [BBIT, N-n-butyl-1,2-benzisothiazolin-3-one]",44.5,444,0,1.2,2.8,5.6,8.1,22,111,5.3,3,67,111,17.4
